Data on three compounds can be found in EPA's ToxRefDB 2.

One series has as its system rabbit. The settings on record: Sub-acute dermal toxicity, new zealand white, Topical, dose end: 21 day, group: systemic.
The test system of series [1] is rat. The settings on record: Prenatal developmental toxicity study, sprague dawley, Oral, Gavage/Intubation, dose end: 15 GD.
The test system of series [2] is rat. The conditions noted are these: Prenatal developmental toxicity study, sprague dawley, Oral, Gavage/Intubation, dose end: 16 GD, group: maternal.
In series [3] the test system is rat. The conditions noted are these: Subchronic oral toxicity in rodents, wistar, Gavage/Intubation, dose end: 90 day, group: systemic.
For series [4], the system named is rat. The conditions noted are these: Subchronic oral toxicity in rodents, wistar, Gavage/Intubation, dose end: 90 day, group: systemic. This is another data set of the same source.
Series [5] deals with rat. The conditions noted are these: Subchronic dermal toxicity, sprague dawley, Topical, dose end: 14 week, group: systemic.
In series [6] the test system is rat. The conditions noted are these: Multigenerational reproductive toxicity study, sprague dawley, Oral, Feed, dose end: 2 generation.
For series [7], the system named is rat. The conditions noted are these: Subchronic inhalation toxicity, other, Nose-Only, dose end: 90 day, group: systemic, systemic / pathology microscopic / nose / [other] + systemic / pathology microscopic / nose / degeneration + systemic / pathology ….
Series [8] deals with rat. The settings on record: Multigenerational reproductive toxicity study, Sprague-Dawley, Oral, Feed, dose end: 1 generation.
The test system of series [9] is rat. The conditions noted are these: Sub-acute dermal toxicity, other, Topical, dose end: 28 day, group: systemic.
For series [10], the system named is rat. The settings on record: Subchronic oral toxicity in rodents, sprague dawley, Feed, dose end: 3 month, group: systemic.
The mark [11] stands for this setting: systemic / clinical chemistry / glucose / glucose.
Setting [12] is: systemic / in life observation / clinical signs / desquamation + systemic / in life observation / clinical signs / erythema + systemic / in ….
[13] abbreviates: group: developmental, developmental / developmental malformation / bone / short supernumerary + developmental / developmental malformation / eye / anophthalmia + ….
The mark [14] stands for this setting: group: maternal, systemic / in life observation / body weight / body weight gain + systemic / in life observation / food consumption / food consumption.
[15] abbreviates: group: maternal, systemic / in life observation / body weight / body weight gain + systemic / in life observation / food consumption / food consumption + ….
Where [16] appears, read: systemic / in life observation / clinical signs / salivation + systemic / in life observation / food consumption / food consumption.
Where [17] appears, read: systemic / in life observation / clinical signs / righting ability.
Where [18] appears, read: systemic / in life observation / clinical signs / righting ability + systemic / in life observation / body weight / body weight + systemic….
[19] abbreviates: systemic / pathology microscopic / pharynx / lesion(s) (nos).
Setting [20] is: systemic / pathology microscopic / bone marrow / hyperplasia.
The mark [21] stands for this setting: systemic / pathology microscopic / bone marrow / hyperplasia + systemic / hematology / mean corpuscular (cell) volume (mcv) / mean ….
Setting [22] is: group: offspring, developmental / developmental malformation / trunk / umbilical hernia + developmental / offspring survival late / [other] / [other] + ….
Where [23] appears, read: group: parental, systemic / in life observation / clinical signs / body cold to touch + systemic / in life observation / clinical signs / drooping eyelids (….
[24] abbreviates: group: parental, systemic / pathology microscopic / thyroid gland / colloid content + systemic / pathology microscopic / thyroid gland / hypertrophy + ….
Setting [25] is: group: reproductive, reproductive / reproductive performance / dystocia / dystocia + reproductive / reproductive performance / postimplantation loss / ….
[26] abbreviates: group: offspring, systemic / in life observation / body weight / offspring (pup) weight + systemic / in life observation / clinical signs / reduced activity.
[27] abbreviates: group: parental, systemic / clinical chemistry / thyroid stimulating hormone (thyrotropin) (tsh) / thyroid stimulating hormone (=thyrotropin) (tsh) + ….
Setting [28] is: group: parental, systemic / in life observation / clinical signs / nasal discharge + systemic / in life observation / body weight / body weight + systemic / ….
Where [29] appears, read: group: reproductive, reproductive / offspring survival early / dead fetuses / dead fetuses + reproductive / offspring survival early / litter size / litter size….
[30] abbreviates: group: reproductive, reproductive / reproductive performance / reproductive performance other / NOS + reproductive / reproductive performance / pregnancy index….
Where [31] appears, read: systemic / hematology / leukocyte (wbc) count differential / leukocyte (wbc) + systemic / hematology / neutrophils / neutrophils + systemic….
Setting [32] is: systemic / pathology microscopic / thyroid gland / altered colloid + systemic / pathology microscopic / thyroid gland / hypertrophy.
[33] abbreviates: systemic / clinical chemistry / cholesterol / cholesterol + systemic / clinical chemistry / phosphorus / phosphorus + systemic / pathology ….

What is called LOAEL is the lowest dose or exposure tested at which an adverse effect was seen. As a reminder, the NOAEL is the highest tested level that showed no adverse finding. As for `O=S(=O)(C(Cl)(Cl)Cl)C(Cl)(Cl)Cl` [Bis(trichloromethyl)sulfone], the values for the LEL in the series on rabbit (setting [11]), in the series on rat [1] (setting [13]) and with rat [1] (setting [14]) were 0.8 mg/kg/day, 50 mg/kg/day and 10 mg/kg/day, respectively. The NEL was below 0.8 mg/kg/day in the series on rabbit (setting [11]), 10 mg/kg/day in the series with rat [1] (setting [13]) and 2 mg/kg/day in the series on rat [1] (setting [15]). Besides, the LOAEL was 5 mg/kg/day with rabbit (setting [12]), 50 mg/kg/day with rat [1] (setting [13]) and 10 mg/kg/day with rat [1] (setting [14]). The NOAEL with rabbit (setting [12]) turned out to be 2 mg/kg/day; in the series with rat [1] (setting [13]), 10 mg/kg/day; with rat [1] (setting [15]), 2 mg/kg/day.

In the case of `CCCCCCCCCCCCN(CCCN)CCCN` [1,3-Propanediamine, N-(3-aminopropyl)-N-dodecyl-], the LEL in the series with rat [2] (systemic / in life observation / clinical signs / salivation) worked out at 50 mg/kg/day; in the series on rat [3] (setting [17]), 10 mg/kg/day; with rat [4] (setting [19]), 5 mg/kg/day; in the series with rat [5] (setting [21]), 5 mg/kg/day. Further, the LOAEL in the series on rat [2] (setting [16]) was above 200 mg/kg/day; in the series with rat [3] (setting [17]), 10 mg/kg/day; with rat [4] (systemic / pathology microscopic / kidney / basophilia + systemic / pathology microscopic / kidney / dilatation), 90 mg/kg/day; in the series with rat [5] (setting [20]), 5 mg/kg/day. In addition, the NEL with rat [2] (setting [16]) was 25 mg/kg/day; in the series with rat [3] (setting [18]) it was 5 mg/kg/day; in the series on rat [4] (setting [19]) it was below 5 mg/kg/day; with rat [5] (setting [21]) it was below 5 mg/kg/day. Also, the NOAEL in the series on rat [2] (setting [16]) was at least 200 mg/kg/day; with rat [3] (setting [18]), 5 mg/kg/day; in the series with rat [5] (setting [20]), below 5 mg/kg/day.

As to `Cc1ccc(S(=O)(=O)C(I)I)cc1` [Diiodomethyl 4-methylphenyl sulfone], the LOAEL in the series with rat [6] (setting [22]) is above 40 mg/kg/day; with rat [6] (setting [23]), above 40 mg/kg/day; with rat [6] (setting [25]), above 40 mg/kg/day; in the series on rat [7] it was above 1.74 ppm; with rat [8] (setting [26]), above 200 mg/kg/day; with rat [8] (setting [27]), above 200 mg/kg/day. Further, the LOAEL with rat [8] (setting [30]) was above 200 mg/kg/day; with rat [9] (setting [31]) it was above 500 mg/kg/day; in the series on rat [10] (setting [33]), 80 mg/kg/day. Further, the NEL was 2.5 mg/kg/day in the series with rat [6] (setting [22]); below 2.5 mg/kg/day with rat [6] (setting [24]); 10 mg/kg/day with rat [6] (setting [25]); 0.0579 ppm with rat [7]; 20 mg/kg/day with rat [8] (setting [26]); below 20 mg/kg/day in the series with rat [8] (setting [28]). For the same compound, the NEL is 20 mg/kg/day with rat [8] (setting [29]), below 20 mg/kg/day in the series on rat [9] (setting [32]) and 5 mg/kg/day in the series with rat [10] (setting [33]). The NOAEL with rat [6] (setting [22]) was at least 40 mg/kg/day; in the series with rat [6] (setting [23]), at least 40 mg/kg/day; with rat [6] (setting [25]) it was at least 40 mg/kg/day; in the series with rat [7], at least 1.74 ppm; in the series with rat [8] (setting [26]), at least 200 mg/kg/day; in the series on rat [8] (setting [27]), at least 200 mg/kg/day. The NOAEL with rat [8] (setting [30]) was at least 200 mg/kg/day; in the series on rat [9] (setting [31]), at least 500 mg/kg/day; in the series on rat [10] (setting [33]), 20 mg/kg/day. For the same compound, the LEL with rat [6] (group: offspring, systemic / in life observation / body weight / offspring (pup) weight + developmental / offspring survival late / viability index / …) amounted to 10 mg/kg/day; with rat [6] (setting [24]), 2.5 mg/kg/day; in the series on rat [6] (setting [25]) it was 40 mg/kg/day; in the series with rat [7], 0.41 ppm; with rat [8] (setting [26]) it was 80 mg/kg/day; in the series on rat [8] (setting [28]) it was 20 mg/kg/day. Besides, the LEL was 80 mg/kg/day in the series on rat [8] (setting [29]), 20 mg/kg/day in the series with rat [9] (setting [32]) and 20 mg/kg/day in the series on rat [10] (systemic / in life observation / clinical signs / scabbing).
